What is called EC50 is the concentration needed to bring the measured effect to its halfway point. For orientation: Ki means the dissociation constant of the complex between target and ligand, obtained from inhibition or displacement.

The values below come from PMC12265377, “CC48 a new CB2R agonist/FAAH inhibitor dual drug blocks gastric cancer progression and overcomes paclitaxel resistance” (Journal of Experimental & Clinical Cancer Research : CR, 2025).

Data set [1] relates to HGC27-S/R and AGS cell lines. The data set is described as follows: Autophagy assay (western blot of autophagy proteins). The format is cell-based, human. The following applies: 48 h, 1 and 10 µM (AM630 1 and 6 µM). As to the method: Cells were rinsed with ice-cold lysis buffer (50 mM Tris,10 mM EDTA, 1% v/v Triton-X100), supplemented with protease inhibitor cocktail set III (80 µM aprotinin, 5 mM bestatin, 1.5 mM leupeptin, 1 mM pepstatin; Sigma-Merck, St. Louis, MO), 2 mM phenylmethyl sulfonyl fluoride and 1 mM Na3VO4, then sonicated and centrifuged at 13,000 g for 10 min at 4 °C. 20 µg protein extracts were subjected to SDS-PAGE and probed with the following antibodies: anti-ATG5 (#ab108327, diluted 1:1000), anti-ATG7 (#ab52472, diluted 1:5000), anti-ATG12 (#ab303488, diluted 1:1000), anti-Beclin (#ab210498, diluted 1:1000), anti-p62 (#ab109012, diluted 1:10000), anti-LC3 (#ab192890, diluted 1:2000)(all from Abcam, Cambridge, UK) or anti-β-tubulin antibody (#sc-5274, diluted 1:1000; Santa Cruz Biotechnology Inc.,Santa Cruz, CA, USA), followed by incubation with a peroxidase conjugated secondary antibody (Bio-Rad Laboratories, Hercules, CA). After washing in Tris-buffered saline (TBS)-Tween 0.1% v/v solution, proteins were detected by enhanced chemiluminescence (Bio-Rad Laboratories).Total protein expression was quantified using the ImageJ software (http://rsb.info.nih.gov/ij/). The expression level of each of the investigated protein was normalized to the β-tubulin level.
A general note: A western blot detects proteins with antibodies after separation by electrophoresis.

The target of another data set is P-gp (Homo sapiens, UniProt P08183). Description: P-gp interaction assay (Calcein-AM, MDCK-MDR1 cells). As to the method: This experiment was carried out as described by Contino et al. with minor modifications. MDCK-MDR1 cells, stably overexpressing P-gp, (30.000 cells per well) were seeded into black CulturePlate96/wells plate with 100 µL medium and allowed to become confluent overnight. Each test compound solubilized in culture medium was added to cell monolayers, reaching the tested final concentrations (ranging from 0.1 to 100 µM). Each 96/wells plate was incubated at 37 °C for 30 min. […] Each well was washed 3 times with ice cold PBS. […] In these experimental conditions, Calcein cell accumulation in the absence and presence of tested compounds was evaluated and the fluorescence basal level was estimated in untreated cells. In treated wells the increase of fluorescence compared to basal level was measured. EC50 values were determined on the fluorescence increase percentage versus log [dose].
Sequence of P-gp (P08183 whole entry): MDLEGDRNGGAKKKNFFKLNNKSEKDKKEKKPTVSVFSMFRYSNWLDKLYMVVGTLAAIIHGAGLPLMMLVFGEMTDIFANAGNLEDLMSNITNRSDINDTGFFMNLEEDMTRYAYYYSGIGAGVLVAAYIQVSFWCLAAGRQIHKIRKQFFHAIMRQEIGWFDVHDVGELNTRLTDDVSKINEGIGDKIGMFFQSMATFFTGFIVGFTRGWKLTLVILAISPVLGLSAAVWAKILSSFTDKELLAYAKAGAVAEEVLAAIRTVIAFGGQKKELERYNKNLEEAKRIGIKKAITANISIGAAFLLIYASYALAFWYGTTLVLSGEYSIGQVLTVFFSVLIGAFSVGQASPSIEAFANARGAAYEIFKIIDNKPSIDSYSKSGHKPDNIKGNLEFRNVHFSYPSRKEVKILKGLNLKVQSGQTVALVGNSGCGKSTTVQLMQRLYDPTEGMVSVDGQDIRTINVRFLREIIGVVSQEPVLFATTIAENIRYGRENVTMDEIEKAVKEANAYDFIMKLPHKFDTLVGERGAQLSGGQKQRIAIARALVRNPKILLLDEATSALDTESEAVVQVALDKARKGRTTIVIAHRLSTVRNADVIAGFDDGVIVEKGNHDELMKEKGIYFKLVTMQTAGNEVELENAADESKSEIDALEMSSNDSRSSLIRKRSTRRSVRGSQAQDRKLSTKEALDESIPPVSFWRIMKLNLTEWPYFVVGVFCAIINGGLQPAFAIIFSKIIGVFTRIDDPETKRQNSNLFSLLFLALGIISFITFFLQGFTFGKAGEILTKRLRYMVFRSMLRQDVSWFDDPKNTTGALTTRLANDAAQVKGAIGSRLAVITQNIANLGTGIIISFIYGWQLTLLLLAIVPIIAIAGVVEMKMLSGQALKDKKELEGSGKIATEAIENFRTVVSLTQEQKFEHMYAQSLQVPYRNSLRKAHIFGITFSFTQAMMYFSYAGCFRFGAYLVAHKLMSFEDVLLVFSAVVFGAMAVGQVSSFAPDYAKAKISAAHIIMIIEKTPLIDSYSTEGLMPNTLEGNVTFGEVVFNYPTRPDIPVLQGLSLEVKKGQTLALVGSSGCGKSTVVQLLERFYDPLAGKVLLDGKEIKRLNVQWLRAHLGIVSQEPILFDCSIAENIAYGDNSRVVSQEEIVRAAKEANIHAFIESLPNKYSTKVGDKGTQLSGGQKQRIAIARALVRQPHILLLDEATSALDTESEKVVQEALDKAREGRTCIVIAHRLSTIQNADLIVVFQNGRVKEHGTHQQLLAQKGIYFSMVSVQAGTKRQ

Another data set concerns the target CB2R. On the set-up: method as in PMID 7776818, PMID 36542836, PMID 36657299, PMID 20393015. The following applies: ± SEM; read-out: CB2R affinity Ki; cited from earlier work.
In data set [2] the test system is HGC27-R cells. The data set is described as follows: ROS determination assay (DCF-DA). The format is cell-based, human. Particulars: 1 µM, 48 h, vs untreated cells. Here is the method: (§1) For ROS analysis the procedure described in [26] was adapted. […] After the incubation, all the samples were incubated for 30 minutes at 37°C in the dark with 50 µM 2’,7’-dichlorofluorescein diacetate, DCF-DA.
(§2) Cells were then washed, detached with trypsin/EDTA solution, centrifuged at 12,000 g for 10 min and re-suspended in1mL PBS. At least 10.000 total events were acquired using an Attune Nxt Acoustic Focusing Cytometer (Life Technologies Corporation) equipped with a blue laser (488 nm). Analysis was performed and data were visualized using Attune™ NxT v2.6 Software. The percentage of green fluorescent cells and the green fluorescence median were measured on a mono-parametric histogram based on DCF-DA fluorescence.

Data set [3] relates to HGC27-S cells. Description: ROS determination assay (DCF-DA). The following applies: 1 µM, 48 h, vs untreated cells. It counts as cell-based, human. Here is the method: as §1, §2
Data set [4] has as its system HGC27-R cells. The data set is described as follows: Migration (scratch) assay. It counts as cell-based, human. Particulars: scratch assay 24 h, highest concentration. Here is the method:
(§3) HGC27-S/R and AGS cells were grown until confluence. A scratch wound was generated with a pipette tip. […] Photographs were taken of each well immediately (T0) and at various times, T1 (9 h), T2 (24 h), and T3 (48 h), using a Leica DMRXA camera (Leica Microsystems, Milan, Italy). The images were analyzed using ImageJ Software (http://rsb.info.nih.gov/ij/). The distance that cells migrated through the scratch area was determined by measuring the wound width at T1, T2 and T3 and subtracting it from the wound width at the start (T0). The relative migration rate was calculated by setting the percentage of migration of the control cells at time T2 equal to 1 and comparing the percentage of migration of the cells after each drug treatment to this value. The results are representative of three independent experiments.

Data set [5] deals with AGS cells. Description: Migration (scratch) assay. It counts as cell-based, human. Particulars: scratch assay 24 h, 6 µM AM630, 10 µM others. As to the method:
as §3

For data set [6], the system named is HGC27-S cells. Description: Migration (scratch) assay. The format is cell-based, human. The following applies: scratch assay 24 h, 6 µM AM630, 10 µM others. As to the method: as §3
In data set [7] the test system is AGS cells. The data set is described as follows: Muse Annexin V apoptosis assay. Particulars: 48 h, 6 µM AM630, 10 µM others. The format is cell-based, human. From the text:
(§4) After the specified drug treatments, the cells were processed using the Muse Annexin V/Dead Cell Assay Kit (Luminex Corporation, Austin, USA) for quantitative analysis of live, early/ late apoptotic, and dead cells on a Muse Cell Analyzer. Briefly, the assay utilized Annexin V to detect phosphatidylserine on the external membrane of apoptotic cells. The fluorescent signal emitted by dye-conjugated antibodies was detected by flow cytometry technology (Muse Cell Analyzer, Luminex Corporation, Austin, USA). 7-Amino-Actinomycin D (7-AAD) dead cell marker was also used. The cells were then analyzed according to the user’s guide. […] After 48 h treatments the cells were processed according to the user’s guide and analyzed with the Muse caspase-3/7 kit (Millipore).The assay provides the relative percentage of living, early/late apoptotic or dead cells.

Data set [8] deals with HGC27-S cells. Description: Muse Annexin V apoptosis assay. The format is cell-based, human. Particulars: 48 h, 6 µM AM630, 10 µM others.
From the text: as §4

Data set [9] relates to HGC27-R cells. The data set is described as follows: VEGFA in cell culture medium (ELISA). It counts as cell-based, human. Particulars: 10 µM, 48 h, untreated 10.5. Here is the method: (§5) The amount of VEGFA secreted in the culture medium by HGC27-S/R and AGS treated cells was measured using a highly sensitive Enzyme-Linked Immunosorbent Assay (ELISA), Quantikine Kit ELISA (R&D Systems, Minneapolis, MN, USA), according to the manufacturer’s instructions. The measured values were normalized to the number of cells.
On the technique in general: An ELISA detects its analyte on a solid surface through an enzyme-linked reagent.

The subject of data set [10] is AGS cells. Description: VEGFA in cell culture medium (ELISA). Particulars: 10 µM, 48 h, untreated 8.3. It counts as cell-based, human. Here is the method:
as §5

Where [11] appears, read: read-out: P-gp activity, EC50, ± SEM, MDCK-MDR1 cells, Calcein-AM.

Where two headings read alike, the source gives them in different places. Where only a bound is given, the exact number is not on record here.

`COc1ccc(C(=O)c2c(C)n(CCN3CCOCC3)c3cc(I)ccc23)cc1` [AM630, reference compound]: the “expression of autophagy proteins (ATG5, ATG7, ATG12, Beclin-1, p62, LC3-II)” value in [1] is “dose-dependent increase of autophagic proteins”. Besides, the “interaction with P-gp (in words)” value at P-gp (MDCK-MDR1 cells, Calcein-AM) is on record as “low interaction with the pump”. The concentration for a half-maximal effect (EC50) on P-gp (setting [11]) was 16800 ± 3200 nM. Besides, on CB2R, the Ki is 31.2 nM. Further, the ROS production result with HGC27-R cells [2] is “induced an increase in ROS production”. The “intracellular ROS production” value with HGC27-S cells [3] is “significant increase in intracellular ROS production”. In the data set on HGC27-R cells [4], the “relative migration rate (control cells = 1)” value is on record as 0.2. Moreover, the “relative migration rate (untreated cells = 1)” value stood at 0.7 in the data set on AGS cells [5] and 0.6 with HGC27-S cells [6]. Also, the “increase in apoptotic cells compared to untreated cells (Annexin V)” value in the data set with AGS cells [7] and in the data set with HGC27-S cells [8] was 8 fold throughout.
Regarding `CCCCCNc1ccccc1C(=O)NC12CC3CC(CC(C3)C1)C2` [ASF151], the figures for the “VEGFA secretion in culture medium” value in the data set with HGC27-R cells [9] and with AGS cells [10] were 8 pg/mL/cell and 4.4 pg/mL/cell, respectively. Moreover, the “expression of autophagy proteins (ATG5, ATG7, ATG12, Beclin-1, p62, LC3-II)” value in [1] is “less potent inducer of some autophagy-related proteins”. Further, the “interaction with P-gp (in words)” value on P-gp (MDCK-MDR1 cells, Calcein-AM) is on record as “excluded interaction with P-gp”. Besides, the EC50 at P-gp (setting [11]) is above 100000 nM. Further, at CB2R, the Ki was 55.7 ± 10.2 nM. The ROS production result in the data set with HGC27-R cells [2] was “induced an increase in ROS production”.
For the compound `O=C(NC12CC3CC(CC(C3)C1)C2)c1ccccc1OCc1ccccc1` [CC48], the “VEGFA secretion in culture medium” value in the data set with HGC27-R cells [9] worked out at 6.5 pg/mL/cell; with AGS cells [10] it was 5.8 pg/mL/cell. Besides, the EC50 at P-gp was 7750 ± 1250 nM. In addition, the “interaction with P-gp (in words)” value at P-gp (MDCK-MDR1 cells, Calcein-AM) is “moderate interaction with P-gp”. Also, the Ki at CB2R is 14.8 ± 4.49 nM. In addition, in the data set with HGC27-S cells [3], the “intracellular ROS production” value is listed as “significant increase in intracellular ROS production”. In addition, the “relative migration rate (control cells = 1)” value with HGC27-R cells [4] is 0.76. Also, the “relative migration rate (untreated cells = 1)” value came to 0.8 in the data set on AGS cells [5] and 0.6 with HGC27-S cells [6]. Besides, the “increase in apoptotic cells compared to untreated cells (Annexin V)” value in the data set with AGS cells [7] turned out to be 6 fold; in the data set on HGC27-S cells [8], 2 fold.
